The numbers were not newly measured in patent publication US20100316580A1, “ORAL CARE PRODUCT AND METHODS OF USE THEREOF” (Colgate-Palmolive Company, priority 2008, published 2010), which cites them from elsewhere.

SMILES strings stand for the structures.

`Oc1cc(Cl)ccc1Oc1ccc(Cl)cc1Cl` [triclosan, 5-chloro-2-(2,4-dichlorophenoxyphenol]: the solubility in water entry was “only slightly soluble”.
